For assay [1], the system named is Rattus norvegicus. As to the kind of experiment: Hypoglycemic activity by lowering blood glucose in normal rats by 20% after oral administration. In kind it is functional.
Assay [2] concerns Rattus norvegicus. As to the kind of experiment: Hypoglycemic activity by lowering blood glucose in normal rats by 50% after oral administration. In kind it is functional.

In the assay with Rattus norvegicus [1], `C=C(C)C(=O)NCCc1ccc(S(=O)(=O)N2CCN(C3CCCCC3)C2=N)cc1` gave an ED20 of 0.024 mmol/kg. Also, it took a dose of 220 µmol/kg to reach the 50% effect level in the assay on Rattus norvegicus [2] (ED50). In the assay with Rattus norvegicus [1], `CCOCC(=O)NCCc1ccc(S(=O)(=O)N2CCN(C3CCCCC3)C2=N)cc1` returned an ED20 of 0.044 mmol/kg. The ED50 – broadly, the midpoint of the dose-response relation – in the assay on Rattus norvegicus [2] amounted to 150 µmol/kg.

Compound `CSCC(=O)NCCc1ccc(S(=O)(=O)N2CCN(C3CCCCC3)C2=N)cc1` registered an ED20 with Rattus norvegicus [1] of 0.081 mmol/kg. It took a dose of 190 µmol/kg to reach the 50% effect level in the assay with Rattus norvegicus [2] (ED50).

In turn, `C=CC(=O)NCCc1ccc(S(=O)(=O)N2CCN(C3CCCCC3)C2=N)cc1` showed an ED20 with Rattus norvegicus [1] of 0.042 mmol/kg. Further, in the assay on Rattus norvegicus [2], it took a dose of 210 µmol/kg to reach the 50% effect level (ED50). The compound `C/C=C\C(=O)NCCc1ccc(S(=O)(=O)N2CCN(C3CCCCC3)C2=N)cc1` gave an ED20 with Rattus norvegicus [1] of 0.0038 mmol/kg. Also, in the assay with Rattus norvegicus [2], it took a dose of 38 µmol/kg to reach the 50% effect level (ED50). `CC(=O)NCCc1ccc(S(=O)(=O)N2CCN(C3CCCCC3)C2=N)cc1` displayed an ED20 with Rattus norvegicus [1] of 0.038 mmol/kg. In the assay with Rattus norvegicus [2], this compound displayed a 50% effective dose (ED50) of 240 µmol/kg. For `CCOC(=O)NCCc1ccc(S(=O)(=O)N2CCN(C3CCCCC3)C2=N)cc1` the same measures were 0.035 mmol/kg and 170 µmol/kg.

As to `CSc1ccccc1C(=O)NCCc1ccc(S(=O)(=O)N2CCN(C3CCCCC3)C2=N)cc1`, the ED20 with Rattus norvegicus [1] is 0.064 mmol/kg. The ED50 in the assay with Rattus norvegicus [2] was determined as 620 µmol/kg. For `COc1ccc(C(=O)NCCc2ccc(S(=O)(=O)N3CCN(C4CCCCC4)C3=N)cc2)cc1OC` the same measures were 0.066 mmol/kg and 780 µmol/kg.

Take `N=C1N(C2CCCCC2)CCN1S(=O)(=O)c1ccc(CCNC(=S)Nc2ccccc2)cc1`: in the assay with Rattus norvegicus [1], the ED20 turned out to be 0.063 mmol/kg. This compound also showed a median effective dose (ED50) in the assay on Rattus norvegicus [2] of 630 µmol/kg. For `CC(C)CC(=O)NCCc1ccc(S(=O)(=O)N2CCN(C3CCCCC3)C2=N)cc1` the same measures were 0.046 mmol/kg and 150 µmol/kg.

With `N=C1N(C2CCCCC2)CCN1S(=O)(=O)c1ccc(CCNC(=O)Oc2ccccc2)cc1`, the ED20 in the assay with Rattus norvegicus [1] was 0.042 mmol/kg. Also, in the assay with Rattus norvegicus [2], the ED50 was greater than 850 µmol/kg.

As to `CCCCN(C)C(=O)NCCc1ccc(S(=O)(=O)N2CCN(C3CCCCC3)C2=N)cc1`, in the assay on Rattus norvegicus [1], the ED20 was determined as 0.054 mmol/kg. For the same compound, the ED50 with Rattus norvegicus [2] came out at 320 µmol/kg.

Compound `C/C=C(/C)C(=O)NCCc1ccc(S(=O)(=O)N2CCN(C3CCCCC3)C2=N)cc1` registered an ED20 in the assay on Rattus norvegicus [1] of 0.0035 mmol/kg. The compound further registered an ED50 in the assay on Rattus norvegicus [2] of 17 µmol/kg. For `COc1ccc(C(=O)NCCc2ccc(S(=O)(=O)N3CCN(C4CCCCC4)C3=N)cc2)cc1` the same measures were 0.064 mmol/kg and 830 µmol/kg. In the assay on Rattus norvegicus [1], `N=C1N(C2CCCCC2)CCN1S(=O)(=O)c1ccc(CCNC(=S)NC2CCCC2)cc1` gave an ED20 of 0.05 mmol/kg. In the assay on Rattus norvegicus [2], this compound came in with an ED50 of 210 µmol/kg.

In the case of `CCCC/N=C(\S)NCCc1ccc(S(=O)(=O)N2CCN(C3CCCCC3)C2=N)cc1`, in the assay with Rattus norvegicus [1], the ED20 came to 0.015 mmol/kg. This compound yielded an ED50 with Rattus norvegicus [2] of 210 µmol/kg. In the assay with Rattus norvegicus [1], `N=C1N(C2CCCCC2)CCN1S(=O)(=O)c1ccc(CCNC(=O)Nc2ccccc2)cc1` had an ED20 of 0.85 mmol/kg. Consider `CC/N=C(\S)NCCc1ccc(S(=O)(=O)N2CCN(C3CCCCC3)C2=N)cc1`, for which the ED20 with Rattus norvegicus [1] worked out at 0.016 mmol/kg. In the assay on Rattus norvegicus [2], this compound registered a 50% effective dose (ED50) of 140 µmol/kg. For `C/N=C(\S)NCCc1ccc(S(=O)(=O)N2CCN(C3CCCCC3)C2=N)cc1` the same measures were 0.031 mmol/kg and 240 µmol/kg.

Regarding `CC1(C(=O)NCCc2ccc(S(=O)(=O)N3CCN(C4CCCCC4)C3=N)cc2)CC=CCC1` (stereo unspecified), the ED20 in the assay with Rattus norvegicus [1] stood at 0.053 mmol/kg. Further, the 50% effective dose (ED50) in the assay with Rattus norvegicus [2] turned out to be 170 µmol/kg. For `N=C1N(C2CCCCC2)CCN1S(=O)(=O)c1ccc(CCNC(=O)c2ccccc2Cl)cc1` the same measures were 0.023 mmol/kg and 230 µmol/kg. For `CC1=CCC(C(=O)NCCc2ccc(S(=O)(=O)N3CCN(C4CCCCC4)C3=N)cc2)CC1` (stereo unspecified) the same measures were 0.11 mmol/kg and 910 µmol/kg. For `CC(C)/C=C/C(=O)NCCc1ccc(S(=O)(=O)N2CCN(C3CCCCC3)C2=N)cc1` the same measures were 0.0096 mmol/kg and 34 µmol/kg. In the case of `N=C1N(C2CCCCC2)CCN1S(=O)(=O)c1ccc(CCNC=O)cc1`, the ED20 in the assay on Rattus norvegicus [1] turned out to be 0.053 mmol/kg. Also, the ED50 in the assay with Rattus norvegicus [2] was 260 µmol/kg.

With `N=C1N(C2CCCCC2)CCN1S(=O)(=O)c1ccc(CCNC(=O)C2CC2)cc1`, in the assay with Rattus norvegicus [1], the ED20 was determined as 0.034 mmol/kg. Besides, in the assay with Rattus norvegicus [2], the 50% effect level (ED50) was put at a dose of 150 µmol/kg.
